Assay results from EP4291552B1, “MODULATORS OF COMPLEX I” (Boehringer Ingelheim International GmbH, priority 2021, dated 2022).
Read-outs that look alike come from different tables or passages of the source.

Assays:
Complex I = Complex I (Bos taurus, UniProt P25708); experiment: Determination of Complex I mediated ROS-inhibition (CI); format: biochemical, bovine; settings: read-out: CI IC50
[1] = system: mice neuroblastoma cells (HT-22); experiment: Determination of Cellular Protection (HT22); settings: Mus musculus, HT-22, 16 h, read-out: HT22 IC50

CN1C(=O)/C(=C2/COCCN2)c2cc(NC3CC4CCC(C3)N4C)ccc21 (stereo not shown) [Compound 131]
IC50 (Complex I): 189 nM
IC50 [1]: 111 nM

CC(C)N1C(=O)/C(=C2/COCCN2)c2cc(NC3C[C@H]4CC[C@@H](C3)N4C)ccc21 (stereo partly shown) [Compound 123]
IC50 (Complex I): 916 nM
IC50 [1]: 17 nM

CN1[C@@H]2CC[C@H]1CC(Nc1ccc3c(c1)/C(=C1\COCCN1)C(=O)N3C1CCOCC1)C2 (stereo partly shown) [Compound 101]
IC50 (Complex I): 202 nM
IC50 [1]: 369 nM

CC(C)Nc1ccc2c(c1)/C(=C1\CCOCCN1)C(=O)N2C1CCOCC1 [Compound 30]
IC50 (Complex I; Complex I purified from bovine heart, ROS detected via Amplex Red/horse radish peroxidase, 8 point concentration-response): 195 nM
IC50 [1]: 135 nM

O=C1/C(=C2/CCN(C3COC3)CCN2)c2cc(N3CCCC3)ccc2N1C1CCOCC1 [Compound 121]
IC50 [1]: 192 nM

CC(C)N1C(=O)/C(=C2/CCCCN2)c2cc(N(C3CCC3)C3CCC3)ccc21 [Compound 113]
IC50 [1]: 18 nM

CC(C)N1C(=O)/C(=C2/COCCN2)c2cc(NCc3cc[nH]n3)ccc21 [Compound 74]
IC50 [1]: 144 nM

CC(Nc1ccc2c(c1)/C(=C1\COCCN1)C(=O)N2C1CCOCC1)c1cccnc1 (stereo not shown) [Compound 100]
IC50 [1]: 397 nM

CC(C)Nc1ccc2c(c1)/C(=C1\CN(C3COC3)CCN1)C(=O)N2C(C)C [Compound 114]
IC50 [1]: 104 nM

O=C1/C(=C2/COCCN2)c2cc(NC3CCC3)ccc2N1C1CCOC1 (stereo not shown) [Compound 14]
IC50 [1]: 20 nM

O=C1/C(=C2/COCCN2)c2cc(NC3CCOCC3)ccc2N1C1CCOC1 (stereo not shown) [Compound 32]
IC50 [1]: 205 nM

CC(C)Nc1ccc2c(c1)/C(=C1\COCCN1)C(=O)N2C(C)(C)C [Compound 90]
IC50 [1]: 32 nM

CN1CCC/C1=C1/C(=O)N(C2CCOCC2)c2ccc(NC3CCOC3)cc21 (stereo not shown) [Compound 49]
IC50 [1]: 1250 nM

CCC(CC)Nc1ccc2c(c1)/C(=C1\COCCN1)C(=O)N2C1CCOCC1 [Compound 76]
IC50 [1]: 24 nM

O=C(CCO)Nc1ccc2c(c1)/C(=C1\COCCN1)C(=O)N2C1CCOC1 (stereo not shown) [Compound 169]
IC50 [1]: 336 nM

CC(C)Nc1ccc2c(c1)/C(=C1\COCCN1)C(=O)N2C1COCCOC1 [Compound 26]
IC50 [1]: 59 nM

CC(C)N1CCN/C(=C2\C(=O)N(C)c3ccc(N4CCCC4)cc32)CC1 [Compound 110]
IC50 [1]: 19 nM

COCC(C)N1C(=O)/C(=C2/COCCN2)c2cc(N3CCC(O)C3)ccc21 (stereo not shown) [Compound 119]
IC50 [1]: 439 nM

CC(Nc1ccc2c(c1)/C(=C1\COCCN1)C(=O)N2C(C)C)c1cncnc1 (stereo not shown) [Compound 126]
IC50 [1]: 179 nM

O=C1/C(=C2/COCCN2)c2cc(NC3CCC3)ccc2N1C1COC1 [Compound 51]
IC50 [1]: 33 nM

O=C1/C(=C2/COCCN2)c2cc(NCC3CCOCC3)ccc2N1C1CCOCC1 [Compound 81]
IC50 [1]: 233 nM
